Test results from PMC11397358, “Cytotoxic Activity of Novel GnRH Analogs Conjugated with Mitoxantrone in Ovarian Cancer Cells” (Molecules, 2024).
Where two headings read alike, the source gives them in different places.

Key:
[1] = test system: SKOV-3 cells; assay: Confocal microscopy of intracellular mitoxantrone fluorescence, quantified with Image J; format: cell-based, human; settings: 6 h; for localization of mitoxantrone fluorescence, in words: 1 μM, Hoechst nuclear stain; for effect of cisplatin on intracellular accumulation of mitoxantrone, in words: 1 μΜ, cisplatin 30 μg/mL for 1 h before treatment
Description: To determine the accumulation of mitoxantrone within the SKOV-3 cells, we used confocal microscopy, exploiting the ability of mitoxantrone to fluoresce. Specifically, the excitation maxima of mitoxantrone are at 610 and 660 nm, whereas its emission maximum is at 685 nm. To stain the nuclei, we used the Hoechst dye. […] In contrast, the fluorescence signal was absent in untreated cells.
(§1) Figure 9 Confocal microscopy images of SKOV-3 cells treated with or without the GnRH-mitoxantrone conjugates, Con-3, Con-7 or mitoxantrone at a concentration of 1 μΜ for 6 h at 37 °C. At the end of the incubation, the cell nuclei were stained with the DNA-staining Hoechst 33342 dye and confocal fluorescent images were obtained after sequential excitation at 350 nm (for the Hoechst dye) and 638 nm (for the mitoxantrone). The emission filters of 461 nm and 650 nm–700 nm were used for collecting blue (Hoechst dye) and red (mitoxantrone) signals in separate channels. The left images show the nuclei staining with Hoechst dye (blue), whereas the middle ones depict the mitoxantrone fluorescence (red). The right images were created by merging the […] and middle ones and depict the localization of mitoxantrone (red) in both the cytoplasm and the nuclei. The figures are shown from a representative experiment performed three times with similar results.
We hypothesized that the GnRH-conjugated mitoxantrone of Con-3 and Con-7 entered the SKOV-3 cells after the reduction in the disulfide bond linking the GnRH analogs with mitoxantrone and subsequent release of the latter from the conjugates. This chemical reaction could be accomplished by the thioredoxin system, which is overexpressed in cancer cells and reduces the disulfide bonds of proteins and peptides. To verify this hypothesis, we incubated the SKOV-3 cells with cisplatin at a concentration of 30 μg/mL for 1 h before treating them with Con-3 or Con-7 conjugates. Cisplatin is a potent inhibitor of the thioredoxin system.
as §1, with “Figure 10” for “Figure 9”, “with” for “with or without”, “conjugates, Con-3 or” for “conjugates, Con-3,”, “Con-7 (1” for “Con-7 or mitoxantrone at a concentration of 1”, “6 h)” for “6 h”, “37 °C, in the presence or absence of cisplatin. Cisplatin was added to the cells 1 h before their incubation with the GnRH-mitoxantrone conjugates.” for “37 °C.”
Figure 11 Confocal microscopy images of SKOV-3 cells treated with mitoxantrone (1 μΜ for 6 h) at 37 °C, in the presence or absence of cisplatin. Cisplatin was added to the cells 1 h before their incubation with mitoxantrone. At the end of the incubation, the cell nuclei were stained with the DNA-staining Hoechst 33342 dye and confocal fluorescent images were obtained after sequential excitation at 350 nm (for the Hoechst dye) and 638 nm (for the mitoxantrone). The emission filters of 461 nm and 650 nm–700 nm were used for collecting blue (Hoechst dye) and red (mitoxantrone) signals in separate channels. The left images show the nuclei staining with Hoechst dye (blue), whereas the middle ones depict the mitoxantrone fluorescence (red). […]

[2] = test system: SKOV-3 cells; assay: Cell proliferation (MTT) assay; format: cell-based, human; settings: for IC50: Homo sapiens, 0.1 nM–10 µM, medium with 2% BCS, mean ± spread, Con-3 and mitoxantrone n = 3 experiments, Con-7 n = five
Description: The antiproliferative effects of GnRH-mitoxantrone conjugates, Con-3, and Con-7, were evaluated using the SKOV-3 cells. The Con-3 and Con-7 conjugates decreased the proliferation rate of SKOV-3 cells in a dose-dependent manner on days 2, 3, and 4 (Figure 3A–C).
Figure 3 Antiproliferative activity of the GnRH analogs. Decrease in the proliferation rate of the SKOV3 cells after their treatment with increasing concentrations of Con-3, Con-7, Con-P1 or Con-P2 for 2 days (A), 3 days (B) and 4 days (C) at 37 °C. At the end of the incubation, the cells were further incubated with 0.5 mg/mL MTT for 4 h at room temperature and the formed purple formazan crystals were quantified by measuring absorbance at 594 nm. The means ± S.E (triplicate determination) are shown from a representative experiment performed 3 times with similar results. The proliferation rates of cells treated with 1 μΜ of GnRH analogs were used to plot the graph D which depicts the decrease in cell growth over the incubation time (D). Statistical analysis was performed using one-way ANOVA.
At the end of the incubation, the cells were further incubated with 0.5 mg/mL MTT for 4 h at room temperature and the formed purple formazan crystals were quantified by measuring absorbance at 594 nm. The means ± S.E (triplicate determination) are shown from a representative experiment performed 3 times with similar results. […] Statistical analysis was performed using one-way ANOVA.
SKOV-3 cells (kindly provided by Prof. Dimitrios Mavroudis, University of Crete) were seeded into 96-well plates at a density of 6000 cells/well, in triplicates, and incubated overnight in Dulbecco’s modified Eagle’s medium/F12 (DMEM/F12) (1:1), containing 3.15 g/L glucose and 10% bovine calf serum (BCS, HyClone), at 37 °C and 5% CO2. At the end of the incubation, the culture medium was replaced with a fresh one containing 3.15 g/L glucose and 2% BCS, with or without increasing concentrations of GnRH analogs or mitoxantrone (0.1 nM–10 µM), and the cells were further incubated at 37 °C and 5% CO2 for 2, 3 and 4 days. Subsequently, (3-(4,5-dimethylthiazol-2-yl)-2,5- diphenyl tetrazolium bromide) (MTT) was added at a final concentration of 0.5 mg/mL, and the mixtures were incubated for 4 h at room temperature in the dark, allowing the viable cells to reduce the MTT to formazan crystals. The supernatants were removed, and the purple formazan crystals were dissolved in isopropanol containing 4% HCl (100 μL/well) by mixing thoroughly for 30 min in the dark, before the quantification of the absorbance at 594 nm using a Dynatech MicroElisa reader (Chantilly, VA, USA). The percentage of the proliferation rate (% proliferation rate) treated with a GnRH analog was determined based on the following equation: % proliferation rate = (absorbance of cells treated with a GnRH analog/absorbance of untreated cells) × 100. The % viability of the untreated cells (control) was defined as 100%. The % viabilities were analyzed by nonlinear regression analysis, using Prism 8.0 (GraphPad Software, Prism 8.0, San Diego, CA, USA).

Compound | localization of mitoxantrone fluorescence, in words [1] | effect of cisplatin on intracellular accumulation of mitoxantrone, in words [1] | percentage of the proliferation rate ([2]; 1 μΜ, two days of treatment, untreated cells = 100%) | IC50 ([2]; SK-OV-3, 48 h, 2 days at 37 °C, read-out: IC50, proliferation of SKOV-3 cells, day 2) | IC50 ([2]; SK-OV-3, 72 h, 3 days at 37 °C, read-out: IC50, proliferation of SKOV-3 cells, day 3) | IC50 ([2]; SK-OV-3, 96 h, 4 days at 37 °C, read-out: IC50, proliferation of SKOV-3 cells, day 4)
CCNC(=O)[C@@H]1CCCN1C(=O)[C@H](CCCNC(=N)N)NC(=O)[C@H](CC(C)C)NC(=O)[C@@H](CSSCCC(=O)OCCNCCNc1ccc(NCCNCCO)c2c1C(=O)c1c(O)ccc(O)c1C2=O)NC(=O)[C@H](Cc1ccc(O)cc1)NC(=O)[C@H](CO)NC(=O)[C@H](Cc1c[nH]c2ccccc12)NC(=O)[C@H](Cc1c[nH]cn1)NC(=O)[C@@H]1CCC(=O)N1 [Con-3] | detected in both the cytoplasm and nucleus | abolished the accumulation of mitoxantrone | 64.4% |  |  | 
CCNC(=O)[C@@H]1CCCN1C(=O)[C@H](CCCNC(=N)N)NC(=O)[C@H](CC(C)C)NC(=O)[C@@H](CCCCNC(=O)CCCCCNC(=O)CCSSCC(=O)OCCNCCNc1ccc(NCCNCCO)c2c1C(=O)c1c(O)ccc(O)c1C2=O)NC(=O)[C@H](Cc1ccc(O)cc1)NC(=O)[C@H](CO)NC(=O)[C@H](Cc1c[nH]c2ccccc12)NC(=O)[C@H](Cc1c[nH]cn1)NC(=O)[C@@H]1CCC(=O)N1 [Con-7] | detected in both the cytoplasm and nucleus | abolished the accumulation of mitoxantrone |  |  |  | 
O=C1c2c(O)ccc(O)c2C(=O)c2c(NCCNCCO)ccc(NCCNCCO)c21 [mitoxantrone] | detected in both the cytoplasm and nucleus | did not affect the intracellular accumulation |  | 480 ± 210 nM | 420 ± 90 nM | 280 ± 60 nM
